The target in test [1] is T1, SCD (Rattus norvegicus, UniProt P07308).
T1 construct: the obtained precipitate other than the glycogen layer was used as the microsome fraction; from tissue; host or cells: rat liver microsome fraction
T1 sequence (P07308 1-358): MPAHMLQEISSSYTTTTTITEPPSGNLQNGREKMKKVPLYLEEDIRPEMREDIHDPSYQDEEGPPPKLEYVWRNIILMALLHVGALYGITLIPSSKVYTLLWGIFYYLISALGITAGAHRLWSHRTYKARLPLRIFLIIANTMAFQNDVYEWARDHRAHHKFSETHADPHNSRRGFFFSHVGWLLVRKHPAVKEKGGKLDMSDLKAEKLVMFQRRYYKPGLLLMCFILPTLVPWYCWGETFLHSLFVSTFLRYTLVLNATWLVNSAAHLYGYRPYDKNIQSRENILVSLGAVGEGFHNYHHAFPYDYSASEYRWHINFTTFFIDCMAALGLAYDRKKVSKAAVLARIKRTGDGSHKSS
Nature of the test: Measurement of SCD inhibitory activity using microsome (TLC detection system). It counts as biochemical. As to conditions: 1 μM compound; rat liver microsome fraction; [14C]stearoyl-CoA; read-out: Rate of inhibition of SCD activity at compound concentration of 1 μM. As for the experimental part: Testing Method: Measurement of SCD Inhibitory Activity Using Microsome (TLC Detection System)
A microsome fraction was produced and preserved as follows: first, the liver was excised from a rat, thoroughly washed with PBS and then chopped. A microsome preparation buffer (0.25 M sucrose, 10 mM Tris-HCl, pH 7.4, protease inhibitor cocktail (F. Hoffmann-La Roche, Ltd.)) was added to the chopped liver, and the cells were disrupted using a POLYTORON homogenizer on ice. The homogenate thus obtained by the disruption was centrifuged at 10,000×g at 4° C. for 30 minutes to collect a supernatant. The centrifugation operation described above was repeated again for the obtained supernatant to obtain a supernatant again. The obtained supernatant was centrifuged at 40,000×g at 4° C. for 60 minutes, and the obtained precipitate other than the glycogen layer was used as the microsome fraction. The protein concentration of the microsome fraction was measured using BCA Protein Assay Kit (Pierce/Thermo Fisher Scientific, Inc.), and the microsome fraction was cryopreserved at −80° C. until use.
The SCD inhibitory activity of each test compound was measured as follows: first, the test compound was diluted into 10 mM with DMSO to obtain a primary dilution. The obtained primary dilution was diluted 3/1000 by the addition of 3× buffer (300 mM potassium phosphate, pH 7.4, 450 mM KCl, 30 mM NaF, 9 mM MgCl2, 4.5 mM glutathione reduced form (Wako Pure Chemical Industries, Ltd.), 0.3% BSA fatty acid free (Sigma-Aldrich Corp.) to obtain a secondary dilution. The secondary dilution was dispensed at 10 μL/well to a polypropylene 96-deep well block. Then, the microsome fraction diluted using a microsome buffer (10 mM Tris-HCl, pH 7.5, 250 mM sucrose) was added thereto at 10 μL/well (containing 10 μg of the protein). An enzyme reaction solution containing [^14C]stearoyl-CoA (American Radiolabeled Chemicals, Inc.) diluted into […] using 9 mM NADH (Sigma-Aldrich Corp.) was further added thereto at 10 μL/well. 30 minutes thereafter, 2.5 N NaOH was added thereto at 10 μL/well. After the completion of the addition, the deep well block was provided with a plate seal and then left standing overnight in a heat sterilizer set to 55° C. Subsequently to the standing, fatty acid extraction from the sample was carried out in accordance with the Bligh & Dyer method. Specifically, 200 μL of a formic acid:methanol:chloroform (1:6:3) solution was added to the sample thus left standing, and then, the mixture was stirred while the single-layer state was maintained. Further, 120 μL of pure water was added to the mixture to separate it into two layers. After the separation, a 10 μL aliquot was separated from the lower layer, spotted on a reverse-phase TLC plate (RP-18, 1154230001, Merck KGaA), and developed with an acetonitrile:pure water:acetic acid (95:4.5:0.5) solution. After drying, the TLC plate was transferred to Imaging Plate (Fuji Photo Film) for 5 hours or longer. Detection was carried out using FLA7000 (GE Healthcare Japan Corp.), and the obtained spot images were digitalized using ImageQuant TL (GE Healthcare Japan Corp.) to determine the rate of inhibition of SCD activity (%).

The test system of test [2] is human large intestine cancer cell line HCT116. The test can be described thus: Antitumor effect on human large intestine cancer cell line HCT116 cancer-bearing mice. As to conditions: 10 mg/kg, 2 doses per day, orally for 14 days; HCT116 cancer-bearing BALB/c nude mice; tumor growth vs control group. It counts as in vivo, mouse. The procedure: The compound of the present invention was evaluated for its antitumor effect on human large intestine cancer cell line HCT116 cancer-bearing mice by the following method.
The human large intestine cancer cell line HCT116 (purchased from ATCC (American Type Culture Collection)) was transplanted to each 6-week-old BALB/c female nude mouse (BALB/cA Jcl nu/nu: CLEA Japan Inc.) by the subcutaneous injection of 1.0×10^6 cells. After the transplantation, successfully engrafted tumor was observed, and the tumor size was measured 10 to 14 days after the transplantation. The tumor volume was calculated according to the following expression:
Tumor volume=Major axis×Minor axis×Minor axis×(½)
Individuals in which the volume of the engrafted tumor reached approximately 150 mm^3 were selected and used in the experiment as groups each involving 5 to 8 individuals. Each test compound was suspended in a 0.5% methylcellulose solution and orally administered to each individual for 14 days using the dose and the number of doses shown in the table below. Finally, in order to measure drug effects, the tumor volume was calculated from the tumor sizes at the day before the start of the administration and at the final day of the administration, and tumor growth in the test compound administration group compared with a control administration group given only a 0.5% methylcellulose solution was calculated as T/C according to the following expression:
T/C (%)=(Tumor volume after the completion of the administration of the test compound administration group−Tumor volume at the day before the start of the administration of the test compound administration group)/(Tumor volume after the completion of the administration of the control administration group−Tumor volume at the day before the start of the administration of the control administration group)×100

Take `OCc1noc(-c2ccc(N3CCC(c4ccc(C(F)(F)F)cc4)(C(F)(F)F)CC3)nn2)n1` [Example 82, (5-(6-(4-(Trifluoromethyl)-4-(4-(trifluoromethyl)phenyl)piperidin-1-yl)pyridazin-3-yl)-1,2,4-oxadiazol-3-yl)methanol]: in test [1], the inhibition at 1 µM came out at 95%.

`N#CC1(c2ccc(S(F)(F)(F)(F)F)cc2)CCN(c2ccc(-c3nnc(CO)o3)nn2)CC1` [Example 58, 1-(6-(5-(Hydroxymethyl)-1,3,4-oxadiazol-2-yl)pyridazin-3-yl)-4-(4-(pentafluorosulfanyl)phenyl)piperidine-4-carbonitrile]: the inhibition at 1 µM in test [1] is 92%. The “T/C (%)” value in test [2] is listed as 86.2%.

Turning to `COC1(c2ccc(S(F)(F)(F)(F)F)cc2)CCN(c2ccc(-c3nnc(CO)s3)nn2)CC1` [Example 111, (5-(6-(4-Methoxy-4-(4-(pentafluorosulfanyl)phenyl)piperidin-1-yl)pyridazin-3-yl)-1,3,4-thiadiazol-2-yl)methanol], in test [1], the inhibition at 1 µM came to 96%.

With `N#CC1(c2ccc(S(F)(F)(F)(F)F)cc2)CCN(c2ccc(-c3nc(CO)ns3)nn2)CC1` [Example 108, 1-(6-(3-(Hydroxymethyl)-1,2,4-thiadiazol-5-yl)pyridazin-3-yl)-4-(4-(pentafluorosulfanyl)phenyl)piperidine-4-carbonitrile], the inhibition at 1 µM in test [1] is 95%.

Turning to `N#CC1(c2ccc(S(F)(F)(F)(F)F)cc2)CCN(c2ccc(-c3nnc(CO)s3)nn2)CC1` [Example 109, 1-(6-(5-(Hydroxymethyl)-1,3,4-thiadiazol-2-yl)pyridazin-3-yl)-4-(4-(pentafluorosulfanyl)phenyl)piperidine-4-carbonitrile], the inhibition at 1 µM in test [1] is 93%.

Consider `OCc1nnc(-c2ccc(N3CCC(c4ccc(C(F)(F)F)cc4)(C(F)(F)F)CC3)nn2)s1` [Example 113, (5-(6-(4-(Trifluoromethyl)-4-(4-(trifluoromethyl)phenyl)piperidin-1-yl)pyridazin-3-yl)-1,3,4-thiadiazol-2-yl)methanol], for which the inhibition at 1 µM in test [1] is 95%. The “T/C (%)” value in test [2] is 67.8%.

Consider `OCc1nnc(-c2ccc(N3CCC(c4ccc(C(F)(F)F)cc4)(C(F)(F)F)CC3)nn2)o1` [Example 84, (5-(6-(4-(Trifluoromethyl)-4-(4-(trifluoromethyl)phenyl)piperidin-1-yl)pyridazin-3-yl)-1,3,4-oxadiazol-2-yl)methanol], for which the inhibition at 1 µM in test [1] stood at 93%. In addition, the “T/C (%)” value in test [2] was found to be 58.4%.

Turning to `COC1(c2ccc(S(F)(F)(F)(F)F)cc2)CCN(c2ccc(-c3nnc(CO)o3)nn2)CC1` [Example 93, (5-(6-(4-Methoxy-4-(4-(pentafluorosulfanyl)phenyl)piperidin-1-yl)pyridazin-3-yl)-1,3,4-oxadiazol-2-yl)methanol], in test [1], the inhibition at 1 µM is 94%. In addition, in test [2], the “T/C (%)” value is on record as 58.1%.

In the case of `OCc1nsc(-c2ccc(N3CCC(c4ccc(C(F)(F)F)cc4)(C(F)(F)F)CC3)nn2)n1` [Example 112, (5-(6-(4-(Trifluoromethyl)-4-(4-(trifluoromethyl)phenyl)piperidin-1-yl)pyridazin-3-yl)-1,2,4-thiadiazol-3-yl)methanol], the inhibition at 1 µM in test [1] turned out to be 96%. For the same compound, the “T/C (%)” value in test [2] is on record as 53.7%.

With `COC1(c2ccc(S(F)(F)(F)(F)F)cc2)CCN(c2ccc(-c3nc(CO)ns3)nn2)CC1` [Example 110, (5-(6-(4-Methoxy-4-(4-(pentafluorosulfanyl)phenyl)piperidin-1-yl)pyridazin-3-yl)-1,2,4-thiadiazol-3-yl)methanol], the inhibition at 1 µM in test [1] turned out to be 94%. For the same compound, in test [2], the “T/C (%)” value is recorded as 64.8%.

Values taken from patent US20170015654A1, “PYRIDAZINE COMPOUND” (TAKEDA PHARMACEUTICAL COMPANY LIMITED, priority 2014, published 2017).
